Experimental data taken from PubChem BioAssay AID248 (DTP/NCI, 2004).
Values joined by “and” are separate entries in the source; they are usually repeats but may differ in a detail not shown here. Equal entries are not always repeated. Inconclusive results and toxic doses are left out. Rule as the data show it: active = T/C of 150% or more; inactive = T/C below 125%.

Test system: L1210 leukemia ip in BDF1 mice, survival T/C
Test: NCI In Vivo Anticancer Drug Screen. Data for tumor model L1210 Leukemia (intraperitoneal) in B6D2F1 (BDF1) mice
Conditions: endpoint: mean survival time, higher = longer survival
Procedure, shortened: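 Transplantable tumor model; survival measured in treated vs vehicle control mice. Value = treated/control.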

[1] = dose: 100.0 mg/kg/injection, schedule: Q01DX001 (ip), vehicle: Klucel (hydroxypropylcellulose) (HPC)
[2] = dose: 100.0 mg/kg/injection, schedule: Q01DX009 (ip), vehicle: saline sonified
[3] = dose: 200.0 mg/kg/injection, schedule: Q01DX001 (ip), vehicle: Klucel (hydroxypropylcellulose) (HPC)
[4] = dose: 200.0 mg/kg/injection, schedule: Q01DX009 (ip), vehicle: saline sonified
[5] = dose: 400.0 mg/kg/injection, schedule: Q01DX001 (ip), vehicle: Klucel (hydroxypropylcellulose) (HPC)
[6] = dose: 400.0 mg/kg/injection, schedule: Q01DX009 (ip), vehicle: saline sonified
[7] = dose: 50.0 mg/kg/injection, schedule: Q01DX009 (ip), vehicle: saline with Tween-80
[8] = dose: 100.0 mg/kg/injection, schedule: Q01DX009 (ip), vehicle: saline with Tween-80
[9] = dose: 100.0 mg/kg/injection, schedule: Q04DX003 (ip), vehicle: Klucel (hydroxypropylcellulose) (HPC)
[10] = dose: 200.0 mg/kg/injection, schedule: Q01DX009 (ip), vehicle: saline with Tween-80
[11] = dose: 200.0 mg/kg/injection, schedule: Q04DX003 (ip), vehicle: Klucel (hydroxypropylcellulose) (HPC)
[12] = dose: 400.0 mg/kg/injection, schedule: Q04DX003 (ip), vehicle: Klucel (hydroxypropylcellulose) (HPC)
[13] = dose: 100.0 mg/kg/injection, schedule: Q04DX003 (ip), vehicle: saline with Tween-80
[14] = dose: 200.0 mg/kg/injection, schedule: Q04DX003 (ip), vehicle: saline with Tween-80
[15] = dose: 50.0 mg/kg/injection, schedule: Q01DX009 (ip), vehicle: Klucel (hydroxypropylcellulose) (HPC)
[16] = dose: 100.0 mg/kg/injection, schedule: Q01DX009 (ip), vehicle: Klucel (hydroxypropylcellulose) (HPC)
[17] = dose: 200.0 mg/kg/injection, schedule: Q01DX009 (ip), vehicle: Klucel (hydroxypropylcellulose) (HPC)
[18] = dose: 400.0 mg/kg/injection, schedule: Q01DX009 (ip), vehicle: Klucel (hydroxypropylcellulose) (HPC)
[19] = dose: 100.0 mg/kg/injection, schedule: Q04DX003 (ip), vehicle: saline
[20] = dose: 200.0 mg/kg/injection, schedule: Q04DX003 (ip), vehicle: saline
[21] = dose: 400.0 mg/kg/injection, schedule: Q01DX009 (ip), vehicle: saline with Tween-80
[22] = dose: 400.0 mg/kg/injection, schedule: Q04DX003 (ip), vehicle: saline with Tween-80
[23] = dose: 100.0 mg/kg/injection, schedule: Q01DX009 (ip), vehicle: saline
[24] = dose: 200.0 mg/kg/injection, schedule: Q01DX009 (ip), vehicle: saline
[25] = dose: 400.0 mg/kg/injection, schedule: Q04DX003 (ip), vehicle: saline

Measured: T/C

Cc1cc2ccccc2[n+](C)c1-c1ccccc1Cl
inactive: dose: 12.5 mg/kg/injection, schedule: Q04DX003 (ip), vehicle: saline 102 % of control

O=C1NC2CCCCCCC12 (stereo unspecified)
inactive: dose: 100.0 mg/kg/injection, schedule: Q04DX002 (ip), vehicle: saline + alcohol 119 % of control | dose: 200.0 mg/kg/injection, schedule: Q04DX002 (ip), vehicle: saline + alcohol 105 % of control | dose: 400.0 mg/kg/injection, schedule: Q04DX002 (ip), vehicle: saline + alcohol 105 % of control

COC(=O)/C=C1/OC(=O)CC1(C)C
inactive: [1] 106 % of control | [2] 100 % of control | [3] 104 % of control | [4] 96 % of control | [5] 107 % of control | [6] 100 % of control

CC(=O)OCC1OC(N2C(=O)/C(=C/c3ccc(Br)s3)SC2=S)C(OC(C)=O)C(OC(C)=O)C1OC(C)=O (stereo unspecified)
inactive: dose: 25.0 mg/kg/injection, schedule: Q01DX005 (ip), vehicle: other 94 % of control | dose: 50.0 mg/kg/injection, schedule: Q01DX005 (ip), vehicle: other 94 % of control | dose: 100.0 mg/kg/injection, schedule: Q01DX005 (ip), vehicle: other 94 % of control

O=[N+]([O-])c1ccc(/C=N\Nc2ccc([N+](=O)[O-])cn2)cc1
inactive: [7] 91 % of control | [2] 92 % of control | [8] 95 % of control | [9] 94 % of control | [4] 87 % of control | [10] 87 % of control | [11] 93 % of control | [6] 95 % of control | [12] 101 % of control

Cc1ccccc1Nc1n[nH]c(=S)s1
inactive: [7] 94 % of control | [8] 101 % of control | [13] 97 % of control | [10] 97 % of control | [14] 95 % of control

COc1ccc(C(=Nc2ccc(C)cc2)c2ccccc2)cc1
inactive: dose: 12.0 mg/kg/injection, schedule: Q01DX009 (ip), vehicle: Klucel (hydroxypropylcellulose) (HPC) 105 % of control | dose: 12.5 mg/kg/injection, schedule: Q01DX009 (ip), vehicle: Klucel (hydroxypropylcellulose) (HPC) 102 % of control | dose: 25.0 mg/kg/injection, schedule: Q01DX009 (ip), vehicle: Klucel (hydroxypropylcellulose) (HPC) 105 % of control | [15] 97 % of control and 113 % of control | [16] 122 % of control | [9] 101 % of control | [17] 107 % of control | [11] 98 % of control | [18] 107 % of control | [12] 98 % of control

COC(=O)C1C2c3ccccc3C(C1C(=O)OC)[n+]1ccccc12 (stereo unspecified)
inactive: [9] 95 % of control | [11] 98 % of control

O=C(Nc1ccc([N+](=O)[O-])cc1Cl)Oc1ccc(F)cc1
inactive: [9] 95 % of control | [11] 96 % of control | [12] 100 % of control

CC(=O)NC(C)CC(C)C (stereo unspecified)
inactive: [19] 113 % of control | [20] 103 % of control

O=C(Nc1ccc(Cl)c(Cl)c1)NC(CO)(CO)CO
inactive: dose: 100.0 mg/kg/injection, schedule: Q01DX001 (ip), vehicle: saline 100 % of control | dose: 200.0 mg/kg/injection, schedule: Q01DX001 (ip), vehicle: saline 94 % of control | dose: 400.0 mg/kg/injection, schedule: Q01DX001 (ip), vehicle: saline 94 % of control

Cc1ccc(S(=O)(=O)C2=CC(=O)c3ccccc3C2=O)cc1
inactive: dose: 75.0 mg/kg/injection, schedule: Q01DX001 (ip), vehicle: other 88 % of control

CCOC(=O)c1nnc(-c2ccc(C)cc2)[nH]c1=O
inactive: [15] 95 % of control | [16] 95 % of control | [17] 106 % of control

COC(=O)C1C(C(=O)OC)C2(Cl)C(Cl)=C(Cl)C1(Cl)C2(Br)Br (stereo unspecified)
inactive: [1] 101 % of control | [16] 104 % of control | [9] 104 % of control | [3] 104 % of control | [17] 101 % of control | [11] 100 % of control | [5] 97 % of control | [18] 97 % of control | [12] 104 % of control

O=C(Oc1ccc(Cl)cc1Cl)c1ccccc1
inactive: [8] 110 % of control | [13] 98 % of control | [10] 110 % of control | [14] 96 % of control | [21] 113 % of control | [22] 101 % of control

CN(C)C(=O)NC1CCc2ccccc21 (stereo unspecified)
inactive: dose: 100.0 mg/kg/injection, schedule: Q01DX001 (ip), vehicle: other 95 % of control | dose: 200.0 mg/kg/injection, schedule: Q01DX001 (ip), vehicle: other 93 % of control | dose: 400.0 mg/kg/injection, schedule: Q01DX001 (ip), vehicle: other 93 % of control

O=C(NCc1ccccc1Cl)NC1CCCCC1
inactive: dose: 100.0 mg/kg/injection, schedule: Q04DX002 (ip), vehicle: Klucel (hydroxypropylcellulose) (HPC) 87 % of control | dose: 200.0 mg/kg/injection, schedule: Q04DX002 (ip), vehicle: Klucel (hydroxypropylcellulose) (HPC) 102 % of control | dose: 400.0 mg/kg/injection, schedule: Q04DX002 (ip), vehicle: Klucel (hydroxypropylcellulose) (HPC) 105 % of control

COc1ccc(/C=N\NC(=O)CNC(=O)Nc2cccc(Cl)c2)cc1O
inactive: [7] 95 % of control | [8] 92 % of control | [10] 92 % of control

CN(C)C=NC(c1ccccc1)c1ccc(Cl)cc1 (stereo unspecified)
inactive: dose: 75.0 mg/kg/injection, schedule: Q01DX009 (ip), vehicle: saline with Tween-80 95 % of control | dose: 150.0 mg/kg/injection, schedule: Q01DX009 (ip), vehicle: saline with Tween-80 95 % of control | dose: 300.0 mg/kg/injection, schedule: Q01DX009 (ip), vehicle: saline with Tween-80 100 % of control

Nc1cc2c(cc1[N+](=O)[O-])-c1ccc([N+](=O)[O-])cc1C2=O
inactive: dose: 50.0 mg/kg/injection, schedule: Q01DX001 (ip), vehicle: carboxymethylcellulose (CMC) 98 % of control | dose: 100.0 mg/kg/injection, schedule: Q01DX001 (ip), vehicle: carboxymethylcellulose (CMC) 113 % of control | dose: 200.0 mg/kg/injection, schedule: Q01DX001 (ip), vehicle: carboxymethylcellulose (CMC) 98 % of control | dose: 400.0 mg/kg/injection, schedule: Q01DX001 (ip), vehicle: carboxymethylcellulose (CMC) 109 % of control

Cc1cccc(NC(=O)Oc2cc(C)c(Cl)cc2C(C)C)c1
inactive: dose: 100.0 mg/kg/injection, schedule: Q01DX001 (ip), vehicle: saline with Tween-80 103 % of control | [8] 95 % of control and 103 % of control | dose: 100.0 mg/kg/injection, schedule: Q04DX002 (ip), vehicle: saline with Tween-80 105 % of control and 108 % of control | [13] 90 % of control | dose: 200.0 mg/kg/injection, schedule: Q01DX001 (ip), vehicle: saline with Tween-80 104 % of control | [10] 98 % of control and 103 % of control | dose: 200.0 mg/kg/injection, schedule: Q04DX002 (ip), vehicle: saline with Tween-80 97 % of control and 87 % of control | [14] 98 % of control | dose: 400.0 mg/kg/injection, schedule: Q01DX001 (ip), vehicle: saline with Tween-80 106 % of control | [21] 95 % of control and 98 % of control | dose: 400.0 mg/kg/injection, schedule: Q04DX002 (ip), vehicle: saline with Tween-80 94 % of control and 100 % of control | [22] 100 % of control

O=P(c1ccccc1)(c1ccccc1)N1CCCCC1
inactive: [9] 101 % of control | [11] 96 % of control | [12] 93 % of control

O=C1C=C(c2ccccc2)c2cccc3cccc1c23
inactive: dose: 50.0 mg/kg/injection, schedule: Q01DX001 (ip), vehicle: Klucel (hydroxypropylcellulose) (HPC) 98 % of control | [1] 87 % of control | [3] 92 % of control

O=C(O)CCC1CCC(=O)OC1=O (stereo unspecified)
inactive: [23] 101 % of control | [19] 98 % of control | [24] 100 % of control | [20] 89 % of control | dose: 400.0 mg/kg/injection, schedule: Q01DX009 (ip), vehicle: saline 99 % of control | [25] 94 % of control

CCCCCCCCC(=O)CCCCC
inactive: [23] 92 % of control | [19] 101 % of control | [24] 94 % of control | [20] 105 % of control | [25] 100 % of control
